{"source": "ChEMBL document CHEMBL1154173", "about": "“L-proline-catalysed facile green protocol for the synthesis and antimycobacterial evaluation of [1,4]-thiazines” (2009)", "key": {"[1]": {"tested_on": "Mycolicibacterium smegmatis", "assay": "Antimycobacterial activity against […] Mycobacterium smegmatis MC2 by agar dilution method", "format": "functional"}, "[2]": {"tested_on": "Mycobacterium tuberculosis", "assay": "Antimycobacterial activity against Mycobacterium tuberculosis H37Rv by agar dilution method", "format": "functional"}}}
{"smiles": "CCOC(=O)C1C(c2ccccc2Br)N(C)C(c2ccccc2Br)C(C(=O)c2ccc(Cl)cc2)S1(=O)=O", "note": "(racemic)", "values": [{"measurement": "MIC", "setting": "[1]", "result": 18.7, "unit": "µM"}, {"measurement": "MIC", "setting": "[2]", "result": 9.33, "unit": "µM"}]}
{"smiles": "CCOC(=O)C1C(c2ccco2)N(C)C(c2ccco2)C(C(=O)c2ccc(Cl)cc2)S1(=O)=O", "note": "(racemic)", "values": [{"measurement": "MIC", "setting": "[1]", "result": 50.8, "unit": "µM"}, {"measurement": "MIC", "setting": "[2]", "result": 6.36, "unit": "µM"}]}
{"smiles": "CCOC(=O)C1C(c2ccco2)NC(c2ccco2)C(C(=O)c2ccc(Cl)cc2)S1(=O)=O", "note": "(racemic)", "values": [{"measurement": "MIC", "setting": "[2]", "result": 6.55, "unit": "µM"}]}
{"smiles": "CCOC(=O)C1C(c2cccc3ccccc23)NC(c2cccc3ccccc23)C(C(=O)c2ccc(Cl)cc2)S1(=O)=O", "note": "(racemic)", "values": [{"measurement": "MIC", "setting": "[1]", "result": 20.9, "unit": "µM"}, {"measurement": "MIC", "setting": "[2]", "result": 10.4, "unit": "µM"}]}
{"smiles": "CCOC(=O)C1C(c2ccc(Cl)cc2)N(Cc2ccccc2)C(c2ccc(Cl)cc2)C(C(=O)c2ccc(Cl)cc2)S1(=O)=O", "note": "(racemic)", "values": [{"measurement": "MIC", "setting": "[1]", "result": 38, "unit": "µM"}, {"measurement": "MIC", "setting": "[2]", "result": 9.51, "unit": "µM"}]}
{"smiles": "CCOC(=O)C1C(c2cccc([N+](=O)[O-])c2)N(C)C(c2cccc([N+](=O)[O-])c2)C(C(=O)c2ccc(Cl)cc2)S1(=O)=O", "note": "(racemic)", "values": [{"measurement": "MIC", "setting": "[1]", "result": 41.5, "unit": "µM"}, {"measurement": "MIC", "setting": "[2]", "result": 20.8, "unit": "µM"}]}
{"smiles": "CCOC(=O)C1C(c2ccccc2)N(Cc2ccccc2)C(c2ccccc2)C(C(=O)c2ccc(Cl)cc2)S1(=O)=O", "note": "(racemic)", "values": [{"measurement": "MIC", "setting": "[1]", "result": 42.5, "unit": "µM"}, {"measurement": "MIC", "setting": "[2]", "result": 42.5, "unit": "µM"}]}
{"smiles": "CCOC(=O)C1C(c2cccc(F)c2)N(Cc2ccccc2)C(c2cccc(F)c2)C(C(=O)c2ccc(Cl)cc2)S1(=O)=O", "note": "(racemic)", "values": [{"measurement": "MIC", "setting": "[1]", "result": 40.1, "unit": "µM"}, {"measurement": "MIC", "setting": "[2]", "result": 10, "unit": "µM"}]}
{"smiles": "CCOC(=O)C1C(c2ccc(Cl)cc2)N(C)C(c2ccc(Cl)cc2)C(C(=O)c2ccc(Cl)cc2)S1(=O)=O", "note": "(racemic)", "values": [{"measurement": "MIC", "setting": "[1]", "result": 43, "unit": "µM"}, {"measurement": "MIC", "setting": "[2]", "result": 5.39, "unit": "µM"}]}
{"smiles": "CCOC(=O)C1C(c2ccccc2[N+](=O)[O-])NC(c2ccccc2[N+](=O)[O-])C(C(=O)c2ccc(Cl)cc2)S1(=O)=O", "note": "(racemic)", "values": [{"measurement": "MIC", "setting": "[2]", "result": 3.03, "unit": "µM"}]}
{"smiles": "CCOC(=O)C1C(c2ccc(C)cc2)NC(c2ccc(C)cc2)C(C(=O)c2ccc(Cl)cc2)S1(=O)=O", "note": "(racemic)", "values": [{"measurement": "MIC", "setting": "[1]", "result": 2.97, "unit": "µM"}, {"measurement": "MIC", "setting": "[2]", "result": 1.48, "unit": "µM"}]}
{"smiles": "CCOC(=O)C1C(c2ccccc2OC)NC(c2ccccc2OC)C(C(=O)c2ccc(Cl)cc2)S1(=O)=O", "note": "(racemic)", "values": [{"measurement": "MIC", "setting": "[1]", "result": 11.2, "unit": "µM"}, {"measurement": "MIC", "setting": "[2]", "result": 5.61, "unit": "µM"}]}
{"smiles": "CCOC(=O)C1C(c2ccc(Cl)cc2Cl)NC(c2ccc(Cl)cc2Cl)C(C(=O)c2ccc(Cl)cc2)S1(=O)=O", "note": "(racemic)", "values": [{"measurement": "MIC", "setting": "[2]", "result": 1.23, "unit": "µM"}]}
{"smiles": "CCOC(=O)C1C(c2ccc(OC)cc2)NC(c2ccc(OC)cc2)C(C(=O)c2ccc(Cl)cc2)S1(=O)=O", "note": "(racemic)", "values": [{"measurement": "MIC", "setting": "[1]", "result": 1.4, "unit": "µM"}, {"measurement": "MIC", "setting": "[2]", "result": 0.72, "unit": "µM"}]}
{"smiles": "CCOC(=O)C1C(c2ccccc2)N(C)C(c2ccccc2)C(C(=O)c2ccc(Cl)cc2)S1(=O)=O", "note": "(racemic)", "values": [{"measurement": "MIC", "setting": "[1]", "result": 48.8, "unit": "µM"}, {"measurement": "MIC", "setting": "[2]", "result": 24.4, "unit": "µM"}]}
{"smiles": "CCOC(=O)C1C(c2ccc(Cl)cc2)NC(c2ccc(Cl)cc2)C(C(=O)c2ccc(Cl)cc2)S1(=O)=O", "note": "(racemic)", "values": [{"measurement": "MIC", "setting": "[1]", "result": 11, "unit": "µM"}, {"measurement": "MIC", "setting": "[2]", "result": 2.75, "unit": "µM"}]}
{"smiles": "CCOC(=O)C1C(c2ccccc2)NC(c2ccccc2)C(C(=O)c2ccc(Cl)cc2)S1(=O)=O", "note": "(racemic)", "values": [{"measurement": "MIC", "setting": "[1]", "result": 50.2, "unit": "µM"}, {"measurement": "MIC", "setting": "[2]", "result": 12.6, "unit": "µM"}]}
{"smiles": "CCOC(=O)C1C(c2ccc(N(C)C)cc2)NC(c2ccc(N(C)C)cc2)C(C(=O)c2ccc(Cl)cc2)S1(=O)=O", "note": "(racemic)", "values": [{"measurement": "MIC", "setting": "[2]", "result": 10.7, "unit": "µM"}]}
{"smiles": "CCOC(=O)C1C(c2ccccc2C)N(C)C(c2ccccc2C)C(C(=O)c2ccc(Cl)cc2)S1(=O)=O", "note": "(racemic)", "values": [{"measurement": "MIC", "setting": "[1]", "result": 23.1, "unit": "µM"}, {"measurement": "MIC", "setting": "[2]", "result": 11.6, "unit": "µM"}]}
{"smiles": "CCOC(=O)C1C(c2ccc(C)cc2)N(C)C(c2ccc(C)cc2)C(C(=O)c2ccc(Cl)cc2)S1(=O)=O", "note": "(racemic)", "values": [{"measurement": "MIC", "setting": "[2]", "result": 5.8, "unit": "µM"}]}
{"smiles": "CCOC(=O)C1C(c2cccc([N+](=O)[O-])c2)NC(c2cccc([N+](=O)[O-])c2)C(C(=O)c2ccc(Cl)cc2)S1(=O)=O", "note": "(racemic)", "values": [{"measurement": "MIC", "setting": "[1]", "result": 10.6, "unit": "µM"}, {"measurement": "MIC", "setting": "[2]", "result": 5.32, "unit": "µM"}]}
{"smiles": "CCOC(=O)C1C(c2cccc(F)c2)NC(c2cccc(F)c2)C(C(=O)c2ccc(Cl)cc2)S1(=O)=O", "note": "(racemic)", "values": [{"measurement": "MIC", "setting": "[2]", "result": 5.86, "unit": "µM"}]}
{"smiles": "CCOC(=O)C1C(c2cccs2)NC(c2cccs2)C(C(=O)c2ccc(Cl)cc2)S1(=O)=O", "note": "(racemic)", "values": [{"measurement": "MIC", "setting": "[1]", "result": 12.2, "unit": "µM"}, {"measurement": "MIC", "setting": "[2]", "result": 12.2, "unit": "µM"}]}
{"smiles": "CCOC(=O)C1C(c2ccc([N+](=O)[O-])cc2)NC(c2ccc([N+](=O)[O-])cc2)C(C(=O)c2ccc(Cl)cc2)S1(=O)=O", "note": "(racemic)", "values": [{"measurement": "MIC", "setting": "[1]", "result": 10.6, "unit": "µM"}, {"measurement": "MIC", "setting": "[2]", "result": 0.68, "unit": "µM"}]}
{"smiles": "CCOC(=O)C1C(c2ccc(C)cc2)N(Cc2ccccc2)C(c2ccc(C)cc2)C(C(=O)c2ccc(Cl)cc2)S1(=O)=O", "note": "(racemic)", "values": [{"measurement": "MIC", "setting": "[1]", "result": 40.6, "unit": "µM"}, {"measurement": "MIC", "setting": "[2]", "result": 20.3, "unit": "µM"}]}
{"smiles": "CCOC(=O)C1C(c2ccc(OC)cc2)N(Cc2ccccc2)C(c2ccc(OC)cc2)C(C(=O)c2ccc(Cl)cc2)S1(=O)=O", "note": "(racemic)", "values": [{"measurement": "MIC", "setting": "[2]", "result": 9.64, "unit": "µM"}]}
{"smiles": "CCOC(=O)C1C(c2ccc(F)cc2)N(Cc2ccccc2)C(c2ccc(F)cc2)C(C(=O)c2ccc(Cl)cc2)S1(=O)=O", "note": "(racemic)", "values": [{"measurement": "MIC", "setting": "[1]", "result": 40.1, "unit": "µM"}, {"measurement": "MIC", "setting": "[2]", "result": 5.02, "unit": "µM"}]}
{"smiles": "CC[C@@H](CO)NCCN[C@@H](CC)CO", "note": "[ETHAMBUTOL]", "values": [{"measurement": "MIC", "setting": "[2]", "result": 7.64, "unit": "µM"}]}
{"smiles": "NNC(=O)c1ccncc1", "note": "[ISONIAZID]", "values": [{"measurement": "MIC", "setting": "[1]", "result": 45.6, "unit": "µM"}, {"measurement": "MIC", "setting": "[2]", "result": 0.36, "unit": "µM"}]}
{"smiles": "NC(=O)c1cnccn1", "note": "[PYRAZINAMIDE]", "values": [{"measurement": "MIC", "setting": "[2]", "result": 50.8, "unit": "µM"}]}
{"smiles": "CO[C@H]1/C=C/O[C@@]2(C)Oc3c(C)c(O)c4c(O)c(c(/C=N/N5CCN(C)CC5)c(O)c4c3C2=O)NC(=O)/C(C)=C\\C=C\\[C@H](C)[C@H](O)[C@@H](C)[C@@H](O)[C@@H](C)[C@H](OC(C)=O)[C@@H]1C", "note": "[RIFAMPIN]", "values": [{"measurement": "MIC", "setting": "[2]", "result": 0.12, "unit": "µM"}]}
